PubChem BioAssay AID330 (DTP/NCI, 2004)
Several values for one entry are separate records, joined by “and”; a condition that tells them apart may be missing. Equal values may be shown once. Toxic doses and inconclusive results are not listed. How the source made its calls: active means survival T/C of 150% or more; inactive means T/C below 125% in these data.

System: P388 leukemia ip, CD2F1 mice, survival T/C
Assay: NCI In Vivo Anticancer Drug Screen. Data for tumor model P388 Leukemia (intraperitoneal) in CD2F1 (CDF1) mice
Settings: endpoint: median survival time, higher = longer survival
Outline: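 Mice carrying the transplanted tumor received test compound or vehicle. Survival was recorded in each group, and the value is the treated-group measurement divided by that of the vehicle-treated control group.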

[1] = dose: 100.0 mg/kg/injection, schedule: Q01DX009 (ip), vehicle: saline with Tween-80
[2] = dose: 200.0 mg/kg/injection, schedule: Q01DX009 (ip), vehicle: saline with Tween-80
[3] = dose: 100.0 mg/kg/injection, schedule: Q01DX009 (ip), vehicle: saline
[4] = dose: 200.0 mg/kg/injection, schedule: Q01DX009 (ip), vehicle: saline

Measured: T/C

CCC(C)(C)c1cccc(C(=O)O)c1O
inactive: dose: 25.0 mg/kg/injection, schedule: Q04DX003 (ip), vehicle: saline with Tween-80 100 % of control | dose: 50.0 mg/kg/injection, schedule: Q04DX003 (ip), vehicle: saline with Tween-80 118 % of control | dose: 100.0 mg/kg/injection, schedule: Q04DX003 (ip), vehicle: saline with Tween-80 106 % of control and 112 % of control

O=c1c(-c2ccccc2)c(O)on1/C=C1/C=CC=N1
inactive: dose: 50.0 mg/kg/injection, schedule: Q01DX009 (ip), vehicle: saline with Tween-80 105 % of control | [1] 95 % of control | [2] 103 % of control

C/C=C(\CCNCCCC)[Si](C)(C)C
inactive: dose: 100.0 mg/kg/injection, schedule: Q04DX002 (ip), vehicle: saline 104 % of control | dose: 200.0 mg/kg/injection, schedule: Q04DX002 (ip), vehicle: saline 101 % of control

COC(=O)/C=c1\sc2n(c1=O)CCCCN=2
inactive: dose: 60.0 mg/kg/injection, schedule: Q01DX005 (ip), vehicle: Klucel (hydroxypropylcellulose) (HPC) 86 % of control | dose: 120.0 mg/kg/injection, schedule: Q01DX005 (ip), vehicle: Klucel (hydroxypropylcellulose) (HPC) 93 % of control | dose: 240.0 mg/kg/injection, schedule: Q01DX005 (ip), vehicle: Klucel (hydroxypropylcellulose) (HPC) 100 % of control

CSC1=C(C#N)C(=O)N=S(C)(C)=N1
inactive: dose: 50.0 mg/kg/injection, schedule: Q01DX005 (ip), vehicle: saline with Tween-80 108 % of control | dose: 100.0 mg/kg/injection, schedule: Q01DX005 (ip), vehicle: saline with Tween-80 110 % of control | dose: 200.0 mg/kg/injection, schedule: Q01DX005 (ip), vehicle: saline with Tween-80 100 % of control

Cc1nn(-c2ccccc2)c(N)c1C#N
inactive: dose: 50.0 mg/kg/injection, schedule: Q04DX003 (ip), vehicle: Klucel (hydroxypropylcellulose) (HPC) 104 % of control | dose: 100.0 mg/kg/injection, schedule: Q04DX003 (ip), vehicle: Klucel (hydroxypropylcellulose) (HPC) 107 % of control | dose: 200.0 mg/kg/injection, schedule: Q04DX003 (ip), vehicle: Klucel (hydroxypropylcellulose) (HPC) 106 % of control | dose: 400.0 mg/kg/injection, schedule: Q04DX003 (ip), vehicle: Klucel (hydroxypropylcellulose) (HPC) 104 % of control

c1ccc2cc3c(cc2c1)Cn1c-3nc2ccccc21
inactive: dose: 200.0 mg/kg/injection, schedule: Q04DX003 (ip), vehicle: saline with Tween-80 92 % of control | dose: 400.0 mg/kg/injection, schedule: Q04DX003 (ip), vehicle: saline with Tween-80 100 % of control

CC(=O)O[C@H]1CC[C@H]2[C@@H]3CCC4=CC(=O)CC[C@]4(C)[C@H]3[C@H](OC(C)=O)C[C@]12C
inactive: [1] 95 % of control | [2] 100 % of control | dose: 400.0 mg/kg/injection, schedule: Q01DX009 (ip), vehicle: saline with Tween-80 90 % of control

Cc1ccc(S(=O)(=O)SC(C)(C)C)cc1
inactive: dose: 50.0 mg/kg/injection, schedule: Q01DX005 (ip), vehicle: Klucel (hydroxypropylcellulose) (HPC) 112 % of control | dose: 100.0 mg/kg/injection, schedule: Q01DX005 (ip), vehicle: Klucel (hydroxypropylcellulose) (HPC) 112 % of control | dose: 200.0 mg/kg/injection, schedule: Q01DX005 (ip), vehicle: Klucel (hydroxypropylcellulose) (HPC) 112 % of control

CCNc1nc(Cl)nc(NCC)n1
inactive: [3] 98 % of control | [4] 91 % of control | dose: 400.0 mg/kg/injection, schedule: Q01DX009 (ip), vehicle: saline 94 % of control

NC(N)=NCCCC(N)C(=O)CC(Cc1ccc(O)cc1)C(=O)O (stereo unspecified)
inactive: dose: 7.5 mg/kg/injection, schedule: Q01DX005 (ip), vehicle: water 98 % of control | dose: 15.0 mg/kg/injection, schedule: Q01DX005 (ip), vehicle: water 98 % of control | dose: 30.0 mg/kg/injection, schedule: Q01DX005 (ip), vehicle: water 95 % of control | dose: 60.0 mg/kg/injection, schedule: Q01DX005 (ip), vehicle: water 98 % of control

C=CC[n+]1cc2c3ccccc3c(N)cc2c2ccccc21
inactive: dose: 1.56 mg/kg/injection, schedule: Q04DX003 (ip), vehicle: water 107 % of control | dose: 3.13 mg/kg/injection, schedule: Q04DX003 (ip), vehicle: water 116 % of control | dose: 6.25 mg/kg/injection, schedule: Q04DX003 (ip), vehicle: water 114 % of control | dose: 12.5 mg/kg/injection, schedule: Q04DX003 (ip), vehicle: other 106 % of control | dose: 12.5 mg/kg/injection, schedule: Q04DX003 (ip), vehicle: water 109 % of control

N#Cc1cccc(/C=C\C(=O)c2ccccc2)c1
inactive: dose: 50.0 mg/kg/injection, schedule: Q01DX009 (ip), vehicle: saline 88 % of control | [3] 100 % of control | [4] 92 % of control
